From patent US6653529B2, “Use of the maize X112 mutant ahas 2 gene and imidazolinone herbicides for selection of transgenic monocots, maize, rice and wheat plants resistant to the imidazolinone herbicides” (BASF Aktiengesellschaft, priority 2000, dated 2003)
Values joined by “and” are separate entries in the source; they are usually repeats but may differ in a detail not shown here. Equal entries are not always repeated.

Legend:
Assay type in all cases: in vivo
[1] = system: 8692IT (heterozygous XI12 imi-tolerant corn line); assay: Greenhouse spray test of corn lines with imidazolinone herbicides, injury score; conditions: for Score, individual plants (0 dead plants, 5 healthy plants with no injury): 16 days after treatment; for M.S.: score 0 (dead) to 5 (healthy), 16 days
[2] = system: transgenic rice Line 29; assay: Response of rice plants to various herbicides, seed set in greenhouse; conditions: post-emergence, 1× g ai/ha: PURSUIT 62.5, CADRE 32, ARSENAL 24, RAPTOR 32, SCEPTER 125, ACCENT 35, CLASSIC 5, AC322,140 20, LONDAX 68
Summary of the method: (§1)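 Greenhouse flats, 10 plants per cell; 9 herbicides (imidazolinones, rice herbicides, nicosulfuron, chlorimuron-ethyl) sprayed pre- or post-emergence at 1, 2, 4 and 6× rates, three replications. Fresh weight taken 32 days (pre) or 29 days (post, 5 plants/cell) after spraying; remaining plants grown to maturity for percentage filled-seed set.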

[3] = system: untransformed Nt rice plants; assay: as above; conditions: post-emergence, 1× g ai/ha: PURSUIT 62.5, CADRE 32, ARSENAL 24, RAPTOR 32, SCEPTER 125, ACCENT 35, CLASSIC 5, AC322,140 20, LONDAX 68
Summary of the method: as §1

[4] = system: transgenic rice Line 26; assay: as above; conditions: post-emergence, 1× g ai/ha: PURSUIT 62.5, CADRE 32, ARSENAL 24, RAPTOR 32, SCEPTER 125, ACCENT 35, CLASSIC 5, AC322,140 20, LONDAX 68
Summary of the method: as §1

[5] = system: non-transformed control corn line BxA (B73×A188); assay: Greenhouse spray test of corn lines with imidazolinone herbicides, injury score; conditions: for Score, individual plants (0 dead plants, 5 healthy plants with no injury): 16 days after treatment; for M.S.: score 0 (dead) to 5 (healthy), 16 days
Excerpt: (§2) Grow one corn plant per pot (5×5 inch) in a 3×5 flat till three- to four-leaf stage (about 9 to 13 days depending on the weather). On the day of spraying, water the plants well and let excess water drip out. Spray plants on a belt-sprayer with the imidazolinone herbicides at desired rates. […] When temperature was too high, base water plants to prevent wilting. Closely observe the plants for the next two to three weeks. Symptoms of herbicide injury will be visible three days after spraying and susceptible plants will die within two to three weeks depending on temperature.
(§3) The plants were rated on a scale of 0-5 with 0 for dead plants and 5 for healthy plants with no or minimum injury.
(§4) Two transgenic hybrids BAa-4 and MAa-7 lines (see FIG. 5 for their pedigree), a non-transformed control line B×A (B73×A188), 8962IT (heterozygous XI12 imi-tolerant corn line), 8962 (wild type control) and 3395IR (homozygous XA17 imi-resistant corn line) (8962IT and 8962 were from ICI, now Garst Seed Company, Slater, Iowa 50244, and 3395IR was from Pioneer Hi-Bred International Inc, Iowa 50306-3453). Plants were sprayed with 4, 8, 16 or 20×PURSUIT® imazethapyr, ARSENAL® imazapyr, CADRE® imazameth or RAPTOR® imazamox. Plants were scored 0 to 5 (with 0 being dead plants, 5 being healthy plants with no injury) individually 16 days after herbicide treatments. […] For the four tested imidazolinones, transgenic plants could tolerate higher rates of ARSENAL® imazapyr, PURSUIT® imazethapyr, than CADRE® imazameth and RAPTOR® imazamox.

[6] = system: transgenic corn hybrid MAa-7; assay: as above; conditions: MAa-7; for Score, individual plants (0 dead plants, 5 healthy plants with no injury): 16 days after treatment; for M.S.: score 0 (dead) to 5 (healthy), 16 days
Excerpt: as §2, §3, §4

[7] = system: transgenic corn hybrid BAa-4; assay: as above; conditions: BAa-4; for Score, individual plants (0 dead plants, 5 healthy plants with no injury): 16 days after treatment; for M.S.: score 0 (dead) to 5 (healthy), 16 days
Excerpt: as §2, §3, §4

[8] = system: 3395IR (homozygous XA17 imi-resistant corn line); assay: as above; conditions: for Score, individual plants (0 dead plants, 5 healthy plants with no injury): 16 days after treatment; for M.S.: score 0 (dead) to 5 (healthy), 16 days
Excerpt: as §2, §3, §4

[9] = 4×: PURSUIT 250, RAPTOR 160, ARSENAL 96, CADRE 400 g/ha
[10] = 8×: PURSUIT 500, RAPTOR 320, ARSENAL 192, CADRE 800 g/ha
[11] = 16×: RAPTOR 640 g/ha, ARSENAL 384 g/ha, CADRE 1.6 kg/ha

`Cc1cnc(C2=NC(=O)C(C)(C(C)C)N2)c(C(=O)O)c1` (stereo not drawn) [CADRE ®, imazameth] was tested, and the “Score, individual plants (0 dead plants, 5 healthy plants with no injury)” value [1, 9] was 4 (3×) and 5 (2×), the M.S. [1, 9] was 4.4 and the “Score, individual plants (0 dead plants, 5 healthy plants with no injury)” value [1, 10] was 3 (3×) and 2 (2×). The M.S. [1, 10] was 2.6, the “Score, individual plants (0 dead plants, 5 healthy plants with no injury)” value [1, 11] was 1 (2×) and 2 (3×) and the M.S. [1, 11] was 1.6. The “% seed-set” value ([2]; 1× rate) was 88%, the “No. filled seeds/3 panicles” value ([2]; 1× rate) was 154 and the “Total No. of kernels/3 panicles” value ([2]; 1× rate) was 175. For the same molecule, the “% seed-set” value ([2]; 2× rate) was 86%, the “No. filled seeds/3 panicles” value ([2]; 2× rate) was 143 and the “Total No. of kernels/3 panicles” value ([2]; 2× rate) was 166. The “% seed-set” value ([2]; 4× rate) was 82%, the “No. filled seeds/3 panicles” value ([2]; 4× rate) was 126 and the “Total No. of kernels/3 panicles” value ([2]; 4× rate) was 154. For the same molecule, the “% seed-set” value ([2]; 6× rate) was 80%, the “No. filled seeds/3 panicles” value ([2]; 6× rate) was 127 and the “Total No. of kernels/3 panicles” value ([2]; 6× rate) was 159. For the same molecule, the “% seed-set” value ([3]; 1× rate) was 98%, the “No. filled seeds/3 panicles” value ([3]; 1× rate) was 92 and the “Total No. of kernels/3 panicles” value ([3]; 1× rate) was 94. For the same molecule, the “% seed-set” value ([3]; 2× rate) was 83%, the “No. filled seeds/3 panicles” value ([3]; 2× rate) was 76 and the “Total No. of kernels/3 panicles” value ([3]; 2× rate) was 82. The “% seed-set” value ([3]; 4× rate) was 0%, the “No. filled seeds/3 panicles” value ([3]; 4× rate) was 0 and the “Total No. of kernels/3 panicles” value ([3]; 4× rate) was 0. The “% seed-set” value ([3]; 6× rate) was 0%, the “No. filled seeds/3 panicles” value ([3]; 6× rate) was 0 and the “Total No. of kernels/3 panicles” value ([3]; 6× rate) was 0. For the same molecule, the “% seed-set” value ([4]; 1× rate) was 84%, the “No. filled seeds/3 panicles” value ([4]; 1× rate) was 133 and the “Total No. of kernels/3 panicles” value ([4]; 1× rate) was 159. The “% seed-set” value ([4]; 2× rate) was 95%, the “No. filled seeds/3 panicles” value ([4]; 2× rate) was 153 and the “Total No. of kernels/3 panicles” value ([4]; 2× rate) was 161. The “% seed-set” value ([4]; 4× rate) was 87%, the “No. filled seeds/3 panicles” value ([4]; 4× rate) was 124 and the “Total No. of kernels/3 panicles” value ([4]; 4× rate) was 143. For the same molecule, the “% seed-set” value ([4]; 6× rate) was 77%, the “No. filled seeds/3 panicles” value ([4]; 6× rate) was 131 and the “Total No. of kernels/3 panicles” value ([4]; 6× rate) was 169. The “Score, individual plants (0 dead plants, 5 healthy plants with no injury)” value [5, 9] was 0, the M.S. [5, 9] was 0 and the “Score, individual plants (0 dead plants, 5 healthy plants with no injury)” value [5, 10] was 0. For the same molecule, the M.S. [5, 10] was 0, the “Score, individual plants (0 dead plants, 5 healthy plants with no injury)” value [5, 11] was 0 and the M.S. [5, 11] was 0. The “Score, individual plants (0 dead plants, 5 healthy plants with no injury)” value [6, 9] was 5 (4×) and 4, the M.S. [6, 9] was 4.8 and the “Score, individual plants (0 dead plants, 5 healthy plants with no injury)” value [6, 10] was 2 (2×) and 4 (2×) and 3. The M.S. [6, 10] was 3, the “Score, individual plants (0 dead plants, 5 healthy plants with no injury)” value [6, 11] was 0 (2×) and 1 (3×) and the M.S. [6, 11] was 0.6. For the same molecule, the “Score, individual plants (0 dead plants, 5 healthy plants with no injury)” value [7, 9] was 5, the M.S. [7, 9] was 5 and the “Score, individual plants (0 dead plants, 5 healthy plants with no injury)” value [7, 10] was 3 (2×) and 2 (3×). For the same molecule, the M.S. [7, 10] was 2.4, the “Score, individual plants (0 dead plants, 5 healthy plants with no injury)” value [7, 11] was 3 and 1 and 0 (3×) and the M.S. [7, 11] was 0.8. The “Score, individual plants (0 dead plants, 5 healthy plants with no injury)” value [8, 9] was 5, the M.S. [8, 9] was 5 and the “Score, individual plants (0 dead plants, 5 healthy plants with no injury)” value [8, 10] was 5. For the same molecule, the M.S. [8, 10] was 5, the “Score, individual plants (0 dead plants, 5 healthy plants with no injury)” value [8, 11] was 4 (2×) and 5 (3×) and the M.S. [8, 11] was 4.6.
